Data: the supplement of paper PMC10307832

What follows are cell lines tested with C[C@@H](Oc1cc(-c2cnn(C3CCNCC3)c2)cnc1N)c1c(Cl)ccc(F)c1Cl [Crizotinib] + CS(=O)(=O)N1CCN(Cc2cc3nc(-c4cccc5[nH]ncc45)nc(N4CCOCC4)c3s2)CC1 [Pictilisib] (partner 1 µM) (assay: relative viability (nuclei count vs DMSO), 5 days (fraction); higher = more cells survive). Conditions: first compound 1 µM.
In short: (§1)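 For relative viability, nuclei counts in treated wells were divided by those in vehicle wells. Lung cancer cell lines had been pin-tool dosed in 1536-well plates the day after seeding and cultured for 5 days, then fixed and stained in one step (final 0.05% Triton X-100, 1% formaldehyde, 1 ug/ml Hoechst) and imaged at 4×. Doses were one drug alone or a fixed anchor-drug dose plus five library-drug doses (not always all listed) in √10 steps, and values are duplicate-plate medians.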

Compared with LCLC-97TM1, LCLC-103H is higher in relative viability: 0.194 for the first, 0.576 for the second.

Compared with LK-2, LOU-NH91 is lower in relative viability: 0.568 for the first, 0.484 for the second.

Compared with LU99A, LXF-289 is higher in relative viability: 0.365 for the first, 0.782 for the second.

Compared with NCI-H1299, NCI-H1563 is lower in relative viability: 0.909 for the first, 0.652 for the second.

Compared with NCI-H1703, NCI-H1792 is higher in relative viability: 0.284 for the first, 0.285 for the second.

These cell lines were tested with O=C(c1cc(Cc2n[nH]c(=O)c3ccccc23)ccc1F)N1CCN(C(=O)C2CC2)CC1 [Olaparib] + COc1cc2c(Oc3ccc(NC(=O)C4(C(=O)Nc5ccc(F)cc5)CC4)cc3F)ccnc2cc1OCCCN1CCOCC1 [Foretinib] (partner 0.25 µM) in the same assay as above. Conditions: first compound 0.08 µM.
In short: as §1

Going from 201T to A549, the relative viability falls from 1.19 to 0.996.

Going from A-427 to ABC-1, the relative viability rises from 1.03 to 1.09.

Compared with CAL-12T, COR-L23 is lower in relative viability: 1.24 for the first, 1.08 for the second.

First: COR-L 105
Second: Calu-6
The relative viability of the first is higher: 1.37 for the first, 0.892 for the second.

Going from ChaGo-K-1 to EBC-1, the relative viability falls from 0.872 to 0.116.

Going from EKVX to EMC-BAC-2, the relative viability rises from 1.03 to 1.05.

Compared with EPLC-272H, H3255 is higher in relative viability: 0.764 for the first, 0.942 for the second.

Compared with HARA, HCC-15 is higher in relative viability: 0.97 for the first, 1.23 for the second.

Compared with HCC-78, HCC-366 is higher in relative viability: 0.622 for the first, 0.875 for the second.

First: HCC-827
Second: HOP-62
The relative viability of the first is lower: 0.959 for the first, 1.19 for the second.

Going from IA-LM to LC-2-ad, the relative viability falls from 1.36 to 1.05.

First: LCLC-97TM1
Second: LCLC-103H
The relative viability of the first is lower: 0.912 for the first, 1.13 for the second.

First: LK-2
Second: LOU-NH91
The relative viability of the first is higher: 1.4 for the first, 0.943 for the second.

First: LU99A
Second: LXF-289
The relative viability of the first is lower: 0.826 for the first, 1.06 for the second.

Going from NCI-H1299 to NCI-H1563, the relative viability falls from 1.13 to 0.962.

First: NCI-H1623
Second: NCI-H1703
The relative viability of the first is higher: 0.954 for the first, 0.469 for the second.

Going from NCI-H2342 to SW 900, the relative viability falls from 1.18 to 0.999.

Same assay, conditions: first compound 0.253 µM

Compared with 201T, A549 is lower in relative viability: 1.12 for the first, 0.774 for the second.

First: A-427
Second: ABC-1
The relative viability of the first is lower: 1.01 for the first, 1.31 for the second.

First: BEN
Second: CAL-12T
The relative viability of the first is lower: 0.529 for the first, 0.984 for the second.

Going from COR-L23 to COR-L 105, the relative viability rises from 0.842 to 0.988.

First: Calu-6
Second: ChaGo-K-1
The relative viability of the first is lower: 0.789 for the first, 0.868 for the second.

Compared with EBC-1, EKVX is higher in relative viability: 0.094 for the first, 1 for the second.

Going from EMC-BAC-2 to EPLC-272H, the relative viability falls from 0.998 to 0.582.

Going from H3255 to HARA, the relative viability rises from 0.792 to 0.807.

Going from HCC-15 to HCC-78, the relative viability falls from 0.95 to 0.562.

Compared with HCC-366, HCC-827 is higher in relative viability: 0.908 for the first, 0.959 for the second.

Compared with HOP-62, IA-LM is lower in relative viability: 1.13 for the first, 0.978 for the second.

First: LC-2-ad
Second: LCLC-97TM1
The relative viability of the first is lower: 0.816 for the first, 0.827 for the second.

First: LCLC-103H
Second: LK-2
The relative viability of the first is lower: 0.652 for the first, 1.21 for the second.

Going from LOU-NH91 to LU99A, the relative viability falls from 0.957 to 0.646.

Compared with LXF-289, NCI-H1299 is higher in relative viability: 0.91 for the first, 1.07 for the second.

First: NCI-H1563
Second: NCI-H1623
The relative viability of the first is higher: 0.92 for the first, 0.88 for the second.

Going from NCI-H1703 to NCI-H2342, the relative viability rises from 0.328 to 1.18.

Work on SW 900 yielded a relative viability of 0.744.

Same assay, conditions: first compound 2.53 µM

Compared with 201T, A549 is lower in relative viability: 1.07 for the first, 0.872 for the second.

Compared with A-427, ABC-1 is higher in relative viability: 0.769 for the first, 0.98 for the second.

Compared with BEN, CAL-12T is higher in relative viability: 0.688 for the first, 1.07 for the second.

First: COR-L23
Second: COR-L 105
The relative viability of the first is lower: 0.797 for the first, 0.807 for the second.

First: Calu-6
Second: ChaGo-K-1
The relative viability of the first is higher: 0.855 for the first, 0.763 for the second.

First: EBC-1
Second: EKVX
The relative viability of the first is lower: 0.1 for the first, 0.294 for the second.

Compared with EMC-BAC-2, EPLC-272H is lower in relative viability: 0.953 for the first, 0.729 for the second.

Compared with H3255, HARA is higher in relative viability: 0.901 for the first, 0.951 for the second.

Going from HCC-15 to HCC-78, the relative viability falls from 1.07 to 0.557.

First: HCC-366
Second: HCC-827
The relative viability of the first is lower: 0.889 for the first, 0.956 for the second.

Going from HOP-62 to IA-LM, the relative viability rises from 0.892 to 1.06.

Going from LC-2-ad to LCLC-97TM1, the relative viability falls from 1.01 to 0.958.

Going from LCLC-103H to LK-2, the relative viability rises from 0.732 to 1.15.

First: LOU-NH91
Second: LU99A
The relative viability of the first is higher: 0.998 for the first, 0.608 for the second.

First: LXF-289
Second: NCI-H1299
The relative viability of the first is lower: 1.07 for the first, 1.11 for the second.

Going from NCI-H1563 to NCI-H1623, the relative viability falls from 1.02 to 0.814.

Compared with NCI-H1703, NCI-H2342 is higher in relative viability: 0.333 for the first, 0.977 for the second.

For SW 900, the relative viability was 0.994.

Same assay, conditions: first compound 8 µM

Going from 201T to A549, the relative viability falls from 1.05 to 0.548.

First: A-427
Second: ABC-1
The relative viability of the first is lower: 0.834 for the first, 0.922 for the second.

First: BEN
Second: CAL-12T
The relative viability of the first is lower: 0.702 for the first, 0.928 for the second.

Going from COR-L23 to COR-L 105, the relative viability rises from 0.567 to 0.835.

First: Calu-6
Second: ChaGo-K-1
The relative viability of the first is lower: 0.536 for the first, 0.608 for the second.

Compared with EBC-1, EKVX is higher in relative viability: 0.107 for the first, 1.01 for the second.

Going from EMC-BAC-2 to EPLC-272H, the relative viability falls from 0.655 to 0.64.

Going from H3255 to HARA, the relative viability falls from 0.872 to 0.695.

Compared with HCC-15, HCC-78 is lower in relative viability: 0.868 for the first, 0.514 for the second.

Compared with HCC-366, HCC-827 is higher in relative viability: 0.636 for the first, 0.797 for the second.

Going from HOP-62 to IA-LM, the relative viability rises from 0.774 to 1.02.

First: LC-2-ad
Second: LCLC-97TM1
The relative viability of the first is higher: 0.889 for the first, 0.812 for the second.

First: LCLC-103H
Second: LK-2
The relative viability of the first is lower: 0.673 for the first, 1.12 for the second.

Going from LOU-NH91 to LU99A, the relative viability falls from 0.939 to 0.537.

First: LXF-289
Second: NCI-H1299
The relative viability of the first is lower: 0.983 for the first, 1.07 for the second.

Going from NCI-H1563 to NCI-H1623, the relative viability falls from 0.935 to 0.647.

First: NCI-H1703
Second: NCI-H2342
The relative viability of the first is lower: 0.364 for the first, 0.948 for the second.

Work on SW 900 yielded a relative viability of 0.659.

The cell lines below were run with CC(C)C[C@H](NC(=O)[C@H](CCc1ccccc1)NC(=O)CN1CCOCC1)C(=O)N[C@@H](Cc1ccccc1)C(=O)N[C@@H](CC(C)C)C(=O)[C@@]1(C)CO1 [Carfilzomib] + Cc1cc(Nc2cc(N3CCN(C)CC3)nc(Sc3ccc(NC(=O)C4CC4)cc3)n2)n[nH]1 [Tozasertib] (partner 0.1 µM) in the same assay as above. Conditions: first compound 0.001 µM.
In short: as §1

Compared with 201T, A-427 is lower in relative viability: 0.957 for the first, 0.207 for the second.

Compared with ABC-1, BEN is higher in relative viability: 0.196 for the first, 0.554 for the second.

Going from CAL-12T to COR-L23, the relative viability falls from 0.313 to 0.216.

Work on COR-L 105 yielded a relative viability of 0.328.
